For data set [1], the target named is D2-like receptor sites (Sus scrofa, UniProt A0ACM8QMZ9). In words: Competitive binding, porcine striatal tissue, [3H]-spiperone (50 nM ketanserine present). The conditions noted are these: porcine striatal membranes; read-out: Kd for D2-like receptor sites (receptor isotherm).
Protocol: Competitive Binding Experiments. Porcine striatal tissue is obtained from the Purdue Butcher Block and prepared as described in the literature. Striatal tissue is homogenized using a potter-type homogenizer, suspended in homogenization buffer (20 mM Hepes, 0.32 M sucrose, pH 7.4), and spun at 1,000 g for 10 minutes at 4° C. The pellet (P1) is discarded and supernatant is centrifuged at 30,000 g for 10 minutes at 4° C. The resultant pellet (P2) is resuspended in 50 mM Tris buffer (pH 7.4) by briefly using a Kinematica homogenizer, and then centrifuged at 30,000 g for 30 minutes at 4° C. This pellet is resuspended again in 50 mM Tris buffer, dispensed into 1 mL aliquots, and centrifuged for 10 min. at 13,000 g at 4° C. A BSA protein assay is used to determine the final weight of the pellets. Supernatant is aspirated and pellets are frozen at −80° C. until use.
Receptor and competitive binding experiments are performed as described in the literature. Pellets are resuspended (1 mL/mg) in receptor binding buffer (50 mM Hepes, 4 mM MgCl2, pH 7.4) and 75 μg protein is used per well. […] All binding experiments are incubated for 30 minutes at 37° C., and are terminated and counted in a similar fashion to the cAMP binding assays.
Data Analysis. […] Ki values are calculated from IC50 using the Cheng-Prusoff equation.
The nature of data set [2]: pKa used to separate acids by titration. The data set is classed as physicochemical. The method, then: 4-(2,3-Dimethoxyphenyl)but-3-enoic acid (5). Recrystallized paraconic acid 4 (8.6 g, 0.032 mol) was placed into a one-neck round bottom flask and the solid was heated in a 180° C. oil bath for 6 h. Carbon dioxide could be observed bubbling out of the dark brown liquid. The reaction was cooled to room temperature and dissolved in CH2Cl2. The product and any unreacted starting material were extracted into 2 N NaOH (3×100 mL). The pKa of the butenoic acid is approximately 4.2, whereas the pKa of the paraconic acid is approximately 3.6, so the two compounds were separated by titration. The basic aqueous extract was carefully acidified with 2 N HCl, with monitoring by a calibrated pH meter. Once the pH reached 4.5, the solution started becoming slightly cloudy. The solution pH was adjusted to 4.0 and the aqueous solution was extracted with CH2Cl2. After extraction the pH of the aqueous layer increased to around 5 and the titration was repeated until there was no cloudiness at pH 4.0. The starting material was recovered by acidifying to pH 3.0 and extracting with CH2Cl2. The initial organic extracts were dried over Na2SO4, and evaporated under reduced pressure to yield pure 5 that solidified under reduced pressure as a yellow solid (4.7 g, 0.021 mol, 65.2%) that was used without further purification; mp 84-86° C. […]

For data set [3] the following is noted: rodents and non-human primates; iv, sc, po; cited from earlier work.
The target of data set [4] is D1 receptor (Homo sapiens, UniProt P21728). To be noted: reported; cited from earlier work.
Data set [5] deals with D2 receptor (Homo sapiens, UniProt P14416). The conditions noted are these: reported; cited from earlier work.

These results are taken from US9359303B2, “Octahydrobenzoisoquinoline modulators of dopamine receptors and uses therefor” (Purdue Research Foundation, priority 2009, dated 2016).

Chain of D1 receptor (P21728 whole entry): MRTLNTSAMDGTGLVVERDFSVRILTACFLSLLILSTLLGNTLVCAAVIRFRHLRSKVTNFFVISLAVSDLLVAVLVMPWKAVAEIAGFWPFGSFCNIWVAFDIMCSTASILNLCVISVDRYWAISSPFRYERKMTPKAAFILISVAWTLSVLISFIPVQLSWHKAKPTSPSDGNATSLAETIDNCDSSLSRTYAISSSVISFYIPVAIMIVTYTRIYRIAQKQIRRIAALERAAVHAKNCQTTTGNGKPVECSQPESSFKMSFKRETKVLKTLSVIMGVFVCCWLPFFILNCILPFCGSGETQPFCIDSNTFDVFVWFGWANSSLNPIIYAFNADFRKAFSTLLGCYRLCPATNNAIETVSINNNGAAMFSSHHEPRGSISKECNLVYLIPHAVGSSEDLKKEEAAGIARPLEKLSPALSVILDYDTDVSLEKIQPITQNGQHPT
Chain of D2-like receptor sites (A0ACM8QMZ9 entry or part of it): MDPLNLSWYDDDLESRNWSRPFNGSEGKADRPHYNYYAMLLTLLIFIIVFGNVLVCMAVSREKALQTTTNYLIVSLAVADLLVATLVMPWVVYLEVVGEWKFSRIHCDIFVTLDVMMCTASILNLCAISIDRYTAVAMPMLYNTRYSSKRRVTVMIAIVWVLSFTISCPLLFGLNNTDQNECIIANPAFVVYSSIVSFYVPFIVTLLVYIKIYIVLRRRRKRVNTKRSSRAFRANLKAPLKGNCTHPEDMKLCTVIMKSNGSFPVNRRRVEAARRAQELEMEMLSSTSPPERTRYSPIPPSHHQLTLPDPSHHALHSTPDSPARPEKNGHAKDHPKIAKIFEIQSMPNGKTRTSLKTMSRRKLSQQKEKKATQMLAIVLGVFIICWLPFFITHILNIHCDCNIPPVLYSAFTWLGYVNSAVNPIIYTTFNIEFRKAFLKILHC
Chain of D2 receptor (P14416 whole entry): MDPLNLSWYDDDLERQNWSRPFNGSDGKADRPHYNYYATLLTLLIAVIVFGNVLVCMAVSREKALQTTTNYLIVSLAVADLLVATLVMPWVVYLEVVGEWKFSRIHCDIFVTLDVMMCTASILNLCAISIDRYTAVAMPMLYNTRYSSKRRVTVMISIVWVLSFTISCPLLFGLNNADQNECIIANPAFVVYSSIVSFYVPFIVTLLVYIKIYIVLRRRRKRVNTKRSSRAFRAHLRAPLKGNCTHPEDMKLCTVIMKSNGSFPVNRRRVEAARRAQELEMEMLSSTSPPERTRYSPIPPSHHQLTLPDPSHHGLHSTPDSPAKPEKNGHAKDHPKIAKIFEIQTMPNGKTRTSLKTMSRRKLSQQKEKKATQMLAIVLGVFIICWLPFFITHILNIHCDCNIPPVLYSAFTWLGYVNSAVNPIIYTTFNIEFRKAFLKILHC

Consider `O=C(CCCN1CCC2(CC1)C(=O)NCN2c1ccccc1)c1ccc(F)cc1` [[3H]-spiperone], for which, in data set [1], the Kd (usually the concentration at which binding is half-saturated) was determined as 75 pM. On to `Br.Oc1ccc2c(c1O)CC(c1ccccc1)C1CCNCC21` (centres unmarked) [Compound 3, 5-Phenyl-1,2,3,4,4a,5,6,10b-octahydrobenzo[h]isoquinoline-7,8-diol HBr], for which the melting point – broadly, the temperature, or range, at which the solid turns liquid – was greater than 250 °C. Regarding `COc1cccc(C2OC(=O)CC2C(=O)O)c1OC` (centres unmarked) [Compound 4, 2-(2,3-Dimethoxyphenyl)-5-oxo-tetrahydrofuran-3-carboxylic acid], in data set [2], the pKa (usually the negative logarithm of the acid dissociation constant) was roughly 3.6.

For the compound `Br.Oc1ccc2c(c1O)CC[C@H]1CCNC[C@H]21` (relative stereo) [Compound 2, Trans-1,2,3,4,4a,5,6,10b-octahydrobenzo[h]isoquinoline-7,8-diol HBr], the melting point was greater than 250 °C. On to `Cl.Oc1cc2c(cc1O)[C@@H]1c3ccccc3CN[C@H]1CC2` (racemic) [dihydrexidine, (±)-trans-10,11-dihydroxy-5,6,6a,7,8,12b-hexahydrobenzo[a]phenanthridine hydrochloride], for which, in data set [3], the plasma clearance result was “cleared rapidly from plasma”. In addition, in data set [4], the “affinity for the D1 receptor” value is given as 2.2 nM. Moreover, the “affinity for the D2 receptor” value in data set [5] is on record as 183 nM. For `COc1cccc(C=CCC(=O)O)c1OC` [Compound 5, 4-(2,3-Dimethoxyphenyl)but-3-enoic acid], in data set [2], the pKa is roughly 4.2.
